Measured values taken from patent US6521669B1, “Hydroxystilbene compounds for reducing/inhibiting protein glycation” (Societe L'Oreal S.A., priority 1999, dated 2003).

Tests used:
[1] = test system: human hair proteins (keratins); assay: Glycation of isolated human hair proteins (keratins) with ribose, glycation index (Experiment 2); format: biochemical; settings: 50 mM ribose, 50° C., 14 days
Description: The glycation reaction was modelled in vitro in a biochemical model using human hair proteins (keratins) as a support for glycation with ribose. The test system consisted of isolated hair, incubated in a phosphate buffer (0.2M, pH=7.4) containing 50 mM of ribose (origin: Sigma). […] The assembly was incubated at 50° C. in the absence of light and air for 14 days. Control samples, incubated in the presence and absence of ribose, were tested in parallel. After incubation for 14 days, the incubation media were removed and the hair was washed with a solution containing 10 μM of guanidium chloride and then in water of MilliQ grade in order to remove all trace of free ribose. The hair was then placed in a solution containing 50% (v/v) of ethanol and 50 mM of DTT for 15 minutes at 37° C. After washing, the samples were placed in a solution containing 10 mM of 5,5′-dithiobis-2-nitrobenzoic acid. The absorbance relating to the free […] residues was measured at 415 nm. The samples were then washed in a 50% (v/v) ethanol solution and then heated for 30 minutes at 100° C. in a 2M hydrazine monohydrate solution (pH 9.4). After addition of a 1 mg/ml solution of phenylhydrazine in a 40% (v/v) acetic acid solution, the samples were incubated for [lacuna] 60° C. and the absorbance relating to the glycated proteins was measured at 390 nm. For each sample, the glycation index was evaluated by the ratio between the absorbance at 390 nm and the absorbance at 415 nm. [formula] The groups of data (control group and treated groups) were processed by means of a variance analysis (ANOVA), followed by a Dunett test.

[2] = molecular target: bovine serum albumin (Bos taurus, UniProt P02769); assay: Glycation of bovine serum albumin with D-ribose, AGE fluorescence (Experiment 1); format: biochemical
Description: The glycation was evaluated by measuring the fluorescence of the AGEs at λem.=440 nm emitted by each sample after excitation at λex.=370 nm. The inhibition of glycation was visualized by the decrease in fluorescence compared with the sample treated with sugar alone.

Sequence of bovine serum albumin (P02769 25-607): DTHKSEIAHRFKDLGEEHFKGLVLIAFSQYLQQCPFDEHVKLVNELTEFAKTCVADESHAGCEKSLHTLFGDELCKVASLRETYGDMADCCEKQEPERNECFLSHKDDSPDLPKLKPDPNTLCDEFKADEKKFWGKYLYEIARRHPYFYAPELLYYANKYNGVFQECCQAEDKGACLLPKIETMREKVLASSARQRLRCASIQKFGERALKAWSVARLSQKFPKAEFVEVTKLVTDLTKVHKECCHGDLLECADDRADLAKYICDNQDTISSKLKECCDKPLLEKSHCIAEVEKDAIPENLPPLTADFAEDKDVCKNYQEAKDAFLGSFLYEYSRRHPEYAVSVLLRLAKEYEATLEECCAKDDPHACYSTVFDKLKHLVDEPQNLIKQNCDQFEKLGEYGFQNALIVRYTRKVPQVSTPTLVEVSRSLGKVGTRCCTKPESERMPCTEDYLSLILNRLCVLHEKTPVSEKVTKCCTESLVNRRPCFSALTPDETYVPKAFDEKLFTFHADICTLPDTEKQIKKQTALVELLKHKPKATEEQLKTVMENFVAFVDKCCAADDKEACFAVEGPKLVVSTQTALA

inhibition at 1 µM [2]: 17% | inhibition at 10 µM [2]: 29.8%
SMILES: Oc1ccc(C=Cc2cc(O)cc(O)c2)cc1 [resveratrol, 3,5,4′-trihydroxystilbene]
% Inhibition ([1]; resveratrol 10^−4 M): 80% | % Inhibition ([1]; resveratrol 10^−5 M): 51% | % Inhibition ([1]; resveratrol 10^−6 M): 59% | % Inhibition ([1]; resveratrol 10^−7 M): 45%
